{
  "source": "patent US12673039B2",
  "about": "“Methods of inducing autophagy using coumarin derivatives and related compounds” (Buck Institute for Research on Aging, priority 2019, dated 2026)",
  "key": {"C. elegans": {"tested_on": "C. elegans", "assay": "FCCP mitochondrial toxin stress assay in C. elegans", "format": "in vivo", "details": "for resistance to mitochondrial toxin FCCP (survival): wild type worms, 24 hours treatment", "method": "FIG. 20, panels A-H: AIC106 treatment improves mitochondrial health. Panel A) Changes in mitochondrial membrane potential were determined by quantifying fluorescence intensity of individual TMRM stained wild type N2 worms post-24 hours treatment with AIC106 and DMSO-control. [N=3 independent experiments (mean±SD). ****p<0.0001, by unpaired t-test]. Panel B) TMRM stained wild type N2 worms were monitored by fluorescence microscopy. Panel C) Mitophagy flux upon AIC106 treatment was determined in DLM14 young adult worms (TOMM-7 tagged to a peptide linked dual-Fluorescent GFP) by quantifying relative fold changes in ratio of monomeric-fluorescent protein (mFP) to dual-fluorescent protein (dFP) compared to DMSO-control. Panel D) Ability of AIC106 to rescue mitochondrial toxin (FCCP) sensitivity was determined as percent survival of 24 hours treated AIC106 and DMSO-control wild type N2 worms. [N=3 independent experiments (mean±SD). ****p<0.0001, by two-way ANOVA with Sidak's multiple comparisons test]. Panel E) Ability of AIC106 to rescue enhanced mitochondrial toxin (FCCP, 20 μM) sensitivity in mitophagy deficient parkin/pdr-1 mutant was determined as percent survival of 24 hours treated AIC106 and DMSO-control pdr-1(tm598) and pdr-1(tm598); hlh-30(tm1978) mutant. […] Panel F) Effect of AIC106 on mitochondrial biogenesis was determined by quantifying GFP fluorescence intensity in an individual SJ4143 worm (GFP targeted in mitochondria of intestinal cells) post-72 hours of treatment with AIC106 and DMSO-control. […] Panel G) SJ4143 worms were monitored by fluorescence microscopy. Panel H) Effects of AIC106 on basal (B) and maximum (M) mitochondrial respiration rate were determined by quantifying oxygen consumption rate (OCR) in wild type N2 and hlh-30(tm1978) mutant strain post-24 hours of treatment with AIC106 and DMSO-control. […]\nFIG. 22, panels A-H: AIC106-induced HLH-30 expression is mediated by the nuclear hormone receptor DAF-12. […] Panel F) Protection against mitochondrial toxin (FCCP) was determined by quantifying survival of young adult worms treated 24 hours with DFA or DMSO-control. […]"}, "HLH-30": {"tested_on": "HLH-30", "assay": "HLH-30 expression and activity in C. elegans (GFP reporter, immunoblot, qRT-PCR)", "format": "in vivo", "details": "for HLH-30:GFP protein by immunoblot: MAH235 young adult worms", "method": "FIG. 9A-9B illustrates that coumarin 106 (“C1”. “AIC106”) induces TFEB (HLH-30) signaling in C. elegans. FIG. 9A) Nuclear TFEB homologue HLH-30 levels in HLH-30 GFP tagged worms grown from day 1 at 20° C. as a measure of TFEB activation. Values are reported as average GFP intensity visualized at a young adult stage, day-5; **p<0.0002 versus control. FIG. 9B) TFEB mRNA levels by qPCR following 24 hrs of C1 treatment (10 μM 20 μM) in worms+/−HLH30 RNAi. Values represent RNA levels versus DMSO-only control RNAi; *p<0.001 versus control RNAi.\nFIG. 18, panels A-F: AIC106 (Autophagy Inducing Coumarin-106) induces transcription of TFEB and its targets in vitro in rat N27 neuronal cells and in vivo in C. elegans. Panel A) Relative fold change in TFEB promoter activity compared to DMSO-control was determined by quantifying luciferase activity in supernatants collected from rat N27 neuronal cells post-24 hour treatment with C1 (AIC106), D1 and D2. [n=3 independent experiments (mean±SEM), **p<0.01, by one-way ANOVA with Dunnett's multiple comparisons test]. Panel B) Chemical structure of AIC106 and its structural derivative D1 and D2. Panel C) Relative fold change in mRNA of tfeb and its targets compared to DMSO-control were quantified using qRT-PCR in N27 neuronal cells post-24 hour treatment with AIC106 [N=3 independent experiments (mean±SD). *p<0.05, **p<0.01 and ****p<0.0001, by two-way ANOVA with Sidak's multiple comparisons test]. Panel D) Changes in HLH-30 expression were measured by quantifying GFP intensity in an individual GFP-tagged HLH-30 strain (MAH235) post-24 hours treatment with AIC106 and DMSO-control. [N=3 independent experiments (mean±SD). ****p<0.0001, by unpaired t-test]. Panel E) HLH-30; GFP (MAH235) were monitored by fluorescence microscopy. Panel F) Relative fold change in mRNA of hlh-30 and its targets compared to DMSO-control were quantified using qRT-PCR in young adult wild type N2 worms post-24 hours treatment with AIC106. [N=3 independent experiments (mean±SD). *p<0.05, **p<0.01 and ***p<0.001, by two-way ANOVA with Sidak's multiple comparisons test].\nFIG. 22, panels A-H: AIC106-induced HLH-30 expression is mediated by the nuclear hormone receptor DAF-12. Panel A) The upstream promoter region (2 kB) of hlh-30 was analyzed by JASPAR CORE database to determine DAF-12 binding sites (1: SEQ ID NO:1, 2: 1: SEQ ID NO:2, 3: SEQ ID NO:3, 4: SEQ ID NO:4, 5: SEQ ID NO:5, 6: SEQ ID NO:6, 7: SEQ ID NO:7, 8: SEQ ID NO:8, 9: SEQ ID NO:9, 10: SEQ ID NO:10, 11: SEQ ID NO:11, 12: SEQ ID NO:12). Panel B) Relative fold change in mRNA of hlh-30 compared to DMSO-control was quantified using qRT-PCR in young adult wild-type N2 and daf-12(rh61rh411) worms post-24 hours treatment with AIC106. [N=3 independent experiments (mean±SD). **p<0.01, by one-way ANOVA with Sidak's multiple comparisons test]. Panel C) Effects of AIC106 on DAF-12 activity was determined in a mammalian one-hybrid assay by quantifying changes in the luciferase activity of DAF-12 ligand (dafachronic acid, DA) induced treatment. [N=3 independent experiments (mean±SD). *p<0.05 **p<0.01 and ***p<0.001, by one-way ANOVA with Tukey's multiple comparisons test]. Panel D) Schematic diagram showing that addition of AIC106 or inhibition of DAF-12 ligand synthesis, which leads to un-liganded DAF-12 may result in enhanced HLH-30 expression. Panel E) Dafadine-A (DFA), a specific inhibitor of key enzyme required for synthesis of DAF-12 ligand induces HLH-30 expression. Immunoblot for GFP was performed on protein lysate of HLH-30; GFP (MAH235) young adult worms treated with DFA or DMSO-control for 24 hours. Panel F) Protection against mitochondrial toxin (FCCP) was determined by quantifying survival of young adult worms treated 24 hours with DFA or DMSO-control. [N=3 independent experiments (mean±SD). **p<0.01, by two-way ANOVA with Tukey's multiple comparisons test]. […]"}},
  "data": [
    {"smiles": "O=c1oc2c3c4c(cc2c2c1CCC2)CCCN4CCC3", "note": "[C1, 2,3,6,7,10,11-Hexahydro-1H,5H-cyclopenta(3,4)(1)benzopyrano(6,7,8-ij)quinolizin-12(9H)-one]", "values": [
      {"measurement": "FCCP sensitivity of pdr-1 mutant", "setting": "C. elegans; pdr-1(tm598), FCCP 20 μM, hlh-30 dependent", "result": "significantly rescue enhanced mitochondrial sensitivity of pdr-1 mutant"},
      {"measurement": "resistance to mitochondrial toxin FCCP (survival)", "setting": "C. elegans", "result": "more resistant to mitochondrial uncoupler FCCP"},
      {"measurement": "activity and expression of HLH-30", "setting": "HLH-30; Example 1 (FIG. 9)", "result": "induction of activity and expression of the worm TFEB homologue HLH-30"},
      {"measurement": "HLH-30 expression (GFP intensity)", "setting": "HLH-30; GFP-tagged HLH-30 strain MAH235, 24 hours", "result": "induces HLH-30 expression in worms"},
      {"measurement": "HLH-30:GFP protein by immunoblot", "setting": "HLH-30; 24 hours", "result": "increase in HLH-30:GFP protein"},
      {"measurement": "HLH-30 expression (hlh-30 mRNA)", "setting": "HLH-30; daf-12(rh61rh411) null mutant", "result": "failed to induce HLH-30 expression"},
      {"measurement": "mRNA levels of HLH-30 target genes", "setting": "HLH-30; wild type N2 worms, 24 hours", "result": "mRNA levels of several HLH-30 target genes were also increased"}
    ]},
    {"smiles": "Cc1cccc(C)c1OCc1cc(C(=O)N2CCC(c3ccncc3)CC2)no1", "note": "[DFA, dafadine-A, reference compound]", "values": [
      {"measurement": "resistance to mitochondrial toxin FCCP (survival)", "setting": "C. elegans", "result": "protected against mitochondrial toxin FCCP"},
      {"measurement": "HLH-30:GFP protein by immunoblot", "setting": "HLH-30; 24 hours", "result": "significant increase in HLH-30 expression"}
    ]}
  ]
}
